The source made the active and inactive calls.
Assays:
NS3 = NS3 (Hepatitis C virus, UniProt A3EZJ3); test: PubChem AID 2173; design: species or system Hepacivirus hominis
[1] = Luminescence Cell-Based Dose Retest to Confirm Inhibitors of Cancer Stem Cells. [Related pubchem assays (depositor defined):AID2717, AID2721]; type: functional; conditions: Homo sapiens
Insulin-degrading enzyme = target: T1, Insulin-degrading enzyme (Homo sapiens, UniProt P14735); test: Dose Response: Fluorescence polarization-based cell-based high throughput dose response assay for inhibitors of insulin-degrading enzyme (IDE). [Related pubchem assays: 434962 (Primary screen (IDE inhibitors in singlicate)), 449730 (Counterscreen (Cytotoxicity in triplicate)), 435028 (Confirmation (IDE inhibitors in triplicate)), 434984 (Summary …; type: functional
T1 sequence (P14735 whole entry): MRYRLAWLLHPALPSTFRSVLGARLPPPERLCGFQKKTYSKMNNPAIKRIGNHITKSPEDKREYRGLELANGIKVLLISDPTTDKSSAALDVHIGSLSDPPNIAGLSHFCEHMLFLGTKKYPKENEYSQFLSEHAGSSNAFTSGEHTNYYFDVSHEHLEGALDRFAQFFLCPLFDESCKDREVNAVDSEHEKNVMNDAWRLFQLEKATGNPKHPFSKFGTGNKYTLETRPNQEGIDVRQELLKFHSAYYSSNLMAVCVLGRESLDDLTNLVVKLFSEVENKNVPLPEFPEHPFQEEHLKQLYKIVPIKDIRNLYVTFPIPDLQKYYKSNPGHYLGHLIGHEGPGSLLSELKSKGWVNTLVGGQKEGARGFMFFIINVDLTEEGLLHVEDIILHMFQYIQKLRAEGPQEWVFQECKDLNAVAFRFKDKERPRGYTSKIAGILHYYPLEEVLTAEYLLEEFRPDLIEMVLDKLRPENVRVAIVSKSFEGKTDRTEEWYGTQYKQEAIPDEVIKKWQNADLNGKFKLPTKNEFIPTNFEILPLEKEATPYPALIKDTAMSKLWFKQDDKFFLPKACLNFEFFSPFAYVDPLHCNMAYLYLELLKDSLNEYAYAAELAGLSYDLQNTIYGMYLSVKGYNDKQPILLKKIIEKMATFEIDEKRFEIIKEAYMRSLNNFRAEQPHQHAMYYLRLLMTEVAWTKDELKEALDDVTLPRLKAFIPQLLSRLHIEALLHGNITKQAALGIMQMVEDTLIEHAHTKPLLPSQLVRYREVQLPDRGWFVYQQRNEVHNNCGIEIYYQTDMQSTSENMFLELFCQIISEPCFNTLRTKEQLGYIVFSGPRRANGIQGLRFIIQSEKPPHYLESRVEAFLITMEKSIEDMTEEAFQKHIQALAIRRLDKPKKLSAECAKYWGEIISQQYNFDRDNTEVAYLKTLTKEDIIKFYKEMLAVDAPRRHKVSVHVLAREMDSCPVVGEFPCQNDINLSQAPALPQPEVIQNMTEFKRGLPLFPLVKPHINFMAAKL

[2] = Counterscreen for IDE inhibitors: Luminescence-based cell-based high throughput dose response assay to identify compounds that are cytotoxic to HEK cells. [Related pubchem assays: 434962 (Primary screen (IDE inhibitors in singlicate)), 449730 (Counterscreen (Cytotoxicity in triplicate)), 435028 (Confirmation (IDE inhibitors in triplicate)) …; type: functional; conditions: HEK293
[3] = target: Hepatocyte nuclear factor 4-alpha (Homo sapiens, UniProt P41235); type: functional, cell-based;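 note: biochemical luminescence-based dose-response counterscreen measuring inhibition of HNF4 dimerization, run alongside a screen for blockers of ABHD5–perilipin-5 interaction; split luciferase complementation of HNF4 fusion proteins in cell lysate measuring dimerization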
Sequence of Hepatocyte nuclear factor 4-alpha (P41235 whole entry, the tested form may be a part): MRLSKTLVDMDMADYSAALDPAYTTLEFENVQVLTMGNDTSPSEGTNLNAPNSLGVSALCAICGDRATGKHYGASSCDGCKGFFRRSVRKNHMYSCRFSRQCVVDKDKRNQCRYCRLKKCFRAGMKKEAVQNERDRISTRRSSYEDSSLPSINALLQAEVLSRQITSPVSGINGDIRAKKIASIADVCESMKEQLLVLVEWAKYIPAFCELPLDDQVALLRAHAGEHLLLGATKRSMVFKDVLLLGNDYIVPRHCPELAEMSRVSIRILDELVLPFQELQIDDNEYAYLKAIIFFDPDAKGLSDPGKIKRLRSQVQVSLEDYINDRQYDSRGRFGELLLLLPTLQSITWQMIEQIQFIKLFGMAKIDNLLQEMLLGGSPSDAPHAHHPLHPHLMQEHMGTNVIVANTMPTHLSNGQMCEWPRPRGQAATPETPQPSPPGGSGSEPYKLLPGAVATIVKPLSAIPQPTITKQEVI

[4] = target: T2, Heat shock factor protein 1 (Mus musculus, UniProt P38532); test: enhancement of HSF1-driven luciferase signal – cell-based, NIH3T3, luminescence, dose retest, confirmation (AID 435004); type: functional;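 note: stress induced by proteasome inhibitor MG132 added 30 min after compound; luciferase reporter driven by HSF1 response element in NIH3T3 cells; actives raise luminescence as potentiators of the MG132 stress response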
T2 sequence (P38532 whole entry): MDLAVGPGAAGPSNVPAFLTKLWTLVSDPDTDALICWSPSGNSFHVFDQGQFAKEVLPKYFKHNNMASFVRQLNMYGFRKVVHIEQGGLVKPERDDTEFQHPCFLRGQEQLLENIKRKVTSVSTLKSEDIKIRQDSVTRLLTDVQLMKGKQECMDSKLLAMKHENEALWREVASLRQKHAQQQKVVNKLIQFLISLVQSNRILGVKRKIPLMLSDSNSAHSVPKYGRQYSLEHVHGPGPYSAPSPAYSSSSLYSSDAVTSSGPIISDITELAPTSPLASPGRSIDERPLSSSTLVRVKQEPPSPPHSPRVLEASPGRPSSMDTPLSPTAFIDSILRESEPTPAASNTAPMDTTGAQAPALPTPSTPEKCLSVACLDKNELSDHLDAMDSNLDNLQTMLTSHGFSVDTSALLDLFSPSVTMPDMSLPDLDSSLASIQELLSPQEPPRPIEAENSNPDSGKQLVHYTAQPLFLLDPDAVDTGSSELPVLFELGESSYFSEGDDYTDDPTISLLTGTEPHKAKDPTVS

[5] = activation of miR-122 Renilla sensor silencing – cell-based, Huh7 psiCHECK-miR122, Renilla luciferase, cherry-picked, dose response (AID 651956); type: functional;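 note: huh7 hepatoma cells stably carrying a psiCHECK-2 miR-122 sensor plasmid; renilla luciferase signal reporting endogenous miR-122 activity after 48 h compound exposure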
[6] = OVCAR-3 cell viability loss – plate reader, dry powder samples, PAX8 inhibitor project, dose response (AID 743044); type: functional, cell-based
[7] = OVCAR8 cell viability loss – plate reader, dry powder samples, PAX8 project, dose response (AID 743197); type: functional, cell-based; conditions: OVCAR-8
[8] = viability loss in LCL cells – cell-based, plate reader, dry powder, set 2, cytotoxicity control, dose response (AID 624367); type: functional
Paired box protein Pax-8 = Paired box protein Pax-8 (Homo sapiens, UniProt Q06710); test: PAX8 transcriptional activity inhibition in RMG-I – RMG-I cells, luciferase, cherry-pick, dose response (AID 687027); type: functional, cell-based;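 note: luciferase reporter driven by Pax8 target thyroperoxidase promoter measured by SteadyGlo luminescence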
Sequence of Paired box protein Pax-8 (Q06710 whole entry): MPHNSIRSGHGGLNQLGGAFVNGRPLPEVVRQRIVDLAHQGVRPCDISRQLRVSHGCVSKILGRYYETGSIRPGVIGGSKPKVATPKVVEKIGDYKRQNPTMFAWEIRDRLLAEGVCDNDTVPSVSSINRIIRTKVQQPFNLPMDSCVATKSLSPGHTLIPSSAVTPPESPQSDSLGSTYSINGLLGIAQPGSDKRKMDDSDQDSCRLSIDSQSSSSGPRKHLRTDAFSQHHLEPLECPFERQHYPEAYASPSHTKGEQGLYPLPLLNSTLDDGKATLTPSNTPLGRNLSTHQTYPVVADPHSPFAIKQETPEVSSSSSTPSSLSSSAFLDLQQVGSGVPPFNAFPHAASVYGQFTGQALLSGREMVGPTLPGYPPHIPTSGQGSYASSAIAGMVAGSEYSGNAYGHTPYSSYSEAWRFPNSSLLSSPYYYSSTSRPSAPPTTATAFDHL

[9] = IGROV1 cell killing – plate reader, dry powder samples, PAX8 inhibitor project, dose response (AID 743043); type: functional, cell-based; conditions: IGROV-1
[10] = A2780 cell killing – plate reader, dry powder samples, cytotoxicity control, dose response (AID 743046); type: functional, cell-based
[11] = toxicity toward immortalized ovarian surface epithelium – cell-based, plate reader, dry powder samples, cytotoxicity control for PAX8 inhibitor project, dose response (AID 743045); type: functional

Sequence of NS3 (A3EZJ3 whole entry): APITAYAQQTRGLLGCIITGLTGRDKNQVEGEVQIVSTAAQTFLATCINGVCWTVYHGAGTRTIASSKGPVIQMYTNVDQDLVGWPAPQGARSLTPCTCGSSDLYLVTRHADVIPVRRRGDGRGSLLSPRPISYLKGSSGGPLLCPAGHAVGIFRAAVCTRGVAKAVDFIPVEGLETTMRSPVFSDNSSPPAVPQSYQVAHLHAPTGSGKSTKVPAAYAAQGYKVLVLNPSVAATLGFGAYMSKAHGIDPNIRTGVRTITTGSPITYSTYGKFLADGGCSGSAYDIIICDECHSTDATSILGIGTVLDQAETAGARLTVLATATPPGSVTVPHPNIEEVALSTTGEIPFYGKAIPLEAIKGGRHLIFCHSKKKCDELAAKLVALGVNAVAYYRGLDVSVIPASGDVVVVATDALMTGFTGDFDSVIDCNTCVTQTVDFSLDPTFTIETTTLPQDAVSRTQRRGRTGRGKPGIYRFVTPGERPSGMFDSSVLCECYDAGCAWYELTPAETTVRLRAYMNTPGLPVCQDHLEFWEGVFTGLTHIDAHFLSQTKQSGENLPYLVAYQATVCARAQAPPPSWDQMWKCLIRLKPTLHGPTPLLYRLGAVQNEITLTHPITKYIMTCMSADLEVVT

Question: With `Cc1ccc(C(=O)/C=C/c2cc(Br)cc(Br)c2O)o1` as the compound, how does the IC50 (NS3) read?
Answer: 9.14 µM (active)

Question: What about the AC50 [1] of the same compound?
Answer: 3.09 µM (active)

Question: What about the IC50 (Insulin-degrading enzyme) of the same compound?
Answer: 21 µM (not active)

Question: And the IC50 [2]?
Answer: 19.8 µM (not active)

Question: And the IC50 [3]?
Answer: 11 µM (inactive)

Question: What about the EC50 [4] of the same compound?
Answer: 16.8 µM (active)

Question: Which AC50 [5] does the source give for `CC(C)C#Cc1ccc2c(c1)O[C@H](CN(C)C(=O)c1ccncc1)[C@H](C)CN([C@H](C)CO)S2(=O)=O` here?
Answer: 3.04 µM (active)

Question: With `O=C(C[C@@H]1C[C@H]2c3cc(NS(=O)(=O)c4ccc(F)cc4)ccc3O[C@H]2[C@@H](CO)O1)NCc1ccc(Oc2ccccc2)cc1` as the compound, how does the AC50 [6] read?
Answer: 21.5 µM (active)

Question: And the AC50 [7]?
Answer: 43.5 µM (active)

Question: And the AbsAC35 [8]?
Answer: 42.5 µM

Question: And the AC50 (Paired box protein Pax-8)?
Answer: 7.32 µM (active)

Question: And the AC50 [9]?
Answer: 44.3 µM (active)

Question: And the AC50 [10]?
Answer: 45.6 µM (active)

Question: What about the AC50 [11] of the same compound?
Answer: 26.7 µM (active)
